Measured values published in US10420812B2, “Drug combinations and uses in treating a coughing condition” (Infirst Healthcare Limited, priority 2009, dated 2019).
Where “and” joins values, the source holds several entries; their conditions need not be identical. Equal entries are not always repeated.

Assays:
[1] = system: citric acid induced cough responses; test: Citric acid induced cough, theobromine and ACE inhibitor (Example 11)
[2] = system: citric acid induced cough responses; test: Citric acid induced cough, oral theobromine (Example 1); type: in vivo, guinea pig; details: 120 min prior to citric acid exposure
[3] = system: citric acid induced cough responses; test: Citric acid induced cough, theobromine and decongestant (Example 5); type: in vivo, guinea pig
[4] = system: citric acid induced cough responses; test: Citric acid induced cough, theobromine and neuropathic pain agent (Example 9)
[5] = system: citric acid induced cough responses; test: Citric acid induced cough, theobromine and NSAID (Example 8)
[6] = system: coughing condition; test: Treatment of a coughing condition, patient cases (Example 12); type: in vivo, human; details: person, after about 2 days
[7] = system: citric acid induced cough responses; test: Citric acid induced cough, oral and intratracheal theobromine (Example 2); details: 30 min prior
[8] = system: citric acid induced cough responses; test: Citric acid induced cough, theobromine and opiate antitussive agent (Example 4); type: in vivo, guinea pig
[9] = system: citric acid induced cough responses; test: Citric acid induced cough, theobromine and expectorant (Example 7)
[10] = system: citric acid induced cough responses; test: Citric acid induced cough, theobromine and non-opiate antitussive agent (Example 3)
[11] = system: citric acid induced cough responses; test: Citric acid induced cough, theobromine and terpene (Example 10)
[12] = system: citric acid induced cough responses; test: Citric acid induced cough, theobromine and antihistamine (Example 6)
[13] = system: citric acid induced cough; details: guinea-pigs (Minamizawa et al. 2006); cited from earlier work
[14] = system: cough; details: clinical treatment; apparent success attributed to placebo effect (Ramsey et al.); cited from earlier work
[15] = theobromine 30 mg/kg p.o., 120 min prior
[16] = theobromine 10 mg/kg p.o., 120 min prior
[17] = theobromine 7 mg/kg p.o., 120 min prior
[18] = theobromine 10 mg/kg p.o., 30 min prior
[19] = guaifenesin 30 mg/kg p.o., 60 min prior
[20] = ibuprofen 30 mg/kg p.o. only, 60 min prior
[21] = captopril 30 mg/kg p.o., 120 min prior
[22] = gabapentin 60 mg/kg p.o. only, 60 min prior
[23] = codeine 25 mg/kg i.p., 30 min prior

Q: For Cn1cnc2c1c(=O)[nH]c(=O)n2C [theobromine, 3,7-dihydro-3,7-dimethyl-1H-purine-2,6-dione], which “number of citric acid induced coughs” value [1, 15] is on record?
A: The value was 10±4 coughs.

Q: And the “onset time to the first cough” value [1, 15]?
A: The value was 125 ± 22 s.

Q: What about the “Cough Events Mean Number” value ([2]; theobromine 3 mg/kg p.o.) of the same molecule?
A: The value was 25 ± 4 coughs.

Q: What about the “Cough Events Mean Onset Time” value ([2]; theobromine 3 mg/kg p.o.) of the same molecule?
A: Its value is 73 ± 17 s.

Q: And the “Cough Events Mean Number” value ([2]; theobromine 7 mg/kg p.o.)?
A: Its value is 18 ± 3 coughs.

Q: What about the “Cough Events Mean Onset Time” value ([2]; theobromine 7 mg/kg p.o.) of the same molecule?
A: The value was 98 ± 36 s.

Q: What about the “Cough Events Mean Number” value [3, 16] of the same molecule?
A: Its value is 13 ± 3 coughs.

Q: What about the “Cough Events Mean Onset Time” value [3, 16] of the same molecule?
A: The value was 156 ± 15 s.

Q: What about the “number of citric acid induced coughs” value [4, 16] of the same molecule?
A: Its value is 14±4 coughs.

Q: What about the “onset time to the first cough” value [4, 16] of the same molecule?
A: The value was 108 ± 19 s.

Q: What about the “number of citric acid induced coughs” value [5, 16] of the same molecule?
A: The value was 15±3 coughs.

Q: What about the “onset time to the first cough” value [5, 16] of the same molecule?
A: Its value is 113 ± 15 s.

Q: What about the “coughing episodes as indicated by patient” value ([6]; cough as side-effect of ACE inhibitor medication, theobromine in conjunction with the ACE inhibitor) of the same molecule?
A: The value was “decreased coughing episodes”.

Q: And the “coughing episodes as indicated by patient” value ([6]; cough due to angiotensin II receptor antagonist medication, theobromine in conjunction with it)?
A: The value was “decreased coughing episodes”.

Q: And the “Cough Events Mean Number” value ([7]; theobromine 3 mg/kg i.t.)?
A: The value was 17 ± 2 coughs.

Q: And the “Cough Events Mean Onset Time” value ([7]; theobromine 3 mg/kg i.t.)?
A: The value was 115 ± 29 s.

Q: And the “Cough Events Mean Number” value ([7]; theobromine 10 mg/kg i.t.)?
A: The value was 10.3±2 coughs and 10 ± 2 coughs.

Q: And the “Cough Events Mean Onset Time” value ([7]; theobromine 10 mg/kg i.t.)?
A: Its value is 134 ± 18 s.

Q: What about the “Cough Events Mean Number” value ([7]; theobromine 30 mg/kg i.t.) of the same molecule?
A: Its value is 6 ± 1 coughs.

Q: And the “Cough Events Mean Onset Time” value ([7]; theobromine 30 mg/kg i.t.)?
A: Its value is 210 ± 22 s.

Q: And the “Cough Events Mean Number” value ([7]; theobromine 30 mg/kg p.o.)?
A: The value was 12 ± 2 coughs.

Q: What about the “Cough Events Mean Onset Time” value ([7]; theobromine 30 mg/kg p.o.) of the same molecule?
A: Its value is 126 ± 20 s.

Q: And the “Cough Events Mean Number” value [8, 17]?
A: Its value is 19 ± 3 coughs.

Q: What about the “Cough Events Mean Onset Time” value [8, 17] of the same molecule?
A: Its value is 91 ± 13 s.

Q: What about the “Cough Events Mean Number” value [9, 18] of the same molecule?
A: Its value is 15 ± 3 coughs.

Q: And the “Cough Events Mean Onset Time” value [9, 18]?
A: The value was 126 ± 12 s.

Q: What about the “Cough Events Mean Number” value [10, 16] of the same molecule?
A: Its value is 13 ± 2 coughs.

Q: What about the “Cough Events Mean Onset Time” value [10, 16] of the same molecule?
A: The value was 139 ± 22 s.

Q: And the “number of citric acid induced coughs” value [11, 16]?
A: Its value is 14±5 coughs.

Q: What about the “onset time to the first cough” value [11, 16] of the same molecule?
A: The value was 120 ± 23 s.

Q: What about the “Cough Events Mean Number” value [12, 16] of the same molecule?
A: The value was 15 ± 2 coughs.

Q: And the “Cough Events Mean Onset Time” value [12, 16]?
A: Its value is 103 ± 15 s.

Q: For COc1ccccc1OCC(O)CO (stereo not drawn) [guaifenesin], which “Cough Events Mean Number” value [9, 19] is on record?
A: The value was 28 ± 3 coughs.

Q: What about the “Cough Events Mean Onset Time” value [9, 19] of the same molecule?
A: The value was 52 ± 10 s.

Q: Which “efficacy in the citric acid induced cough model” value [13] does the source give for CN[C@@H](C)[C@@H](O)c1ccccc1 [pseudoephedrine] here?
A: Its value is “very limited efficacy”.

Q: For COc1ccc2c(c1)[C@]13CCCC[C@@H]1[C@H](C2)N(C)CC3 [Dextromethorphan], which “efficacy in treating cough” value [14] is on record?
A: The value was “no efficacy”.

Q: For CC(C)Cc1ccc(C(C)C(=O)O)cc1 (stereo not drawn) [Ibuprofen], which “onset time to the first cough” value [5, 20] is on record?
A: The value was 70 ± 5 s.

Q: What about the “total number of coughs” value [5, 20] of the same molecule?
A: Its value is 22±6 coughs.

Q: Which results are given for C[C@H](CS)C(=O)N1CCC[C@H]1C(=O)O [captopril]?
A: onset time to the first cough [1, 21]: 34 ± 12 s; total number of coughs [1, 21]: 45±12 coughs

Q: Which “onset time to the first cough” value [4, 22] does the source give for NCC1(CC(=O)O)CCCCC1 [Gabapentin] here?
A: The value was 90 ± 6 s.

Q: And the “total number of coughs” value [4, 22]?
A: Its value is 24±8 coughs.

Q: What does the source list for COc1ccc2c3c1O[C@H]1[C@@H](O)C=C[C@H]4[C@@H](C2)N(C)CC[C@@]341 [codeine]?
A: number of citric acid induced coughs [1, 23]: 7±3 coughs; onset time to the first cough [1, 23]: 170 ± 28 s; Cough Events Mean Number [3, 23]: 6 ± 1 coughs; Cough Events Mean Onset Time [3, 23]: 195 ± 25 s; number of citric acid induced coughs [4, 23]: 9±4 coughs; onset time to the first cough [4, 23]: 161 ± 31 s; number of citric acid induced coughs [5, 23]: 8±3 coughs; onset time to the first cough [5, 23]: 150 ± 32 s; Cough Events Mean Number ([7]; codeine 25 mg/kg i.p.): 5 ± 1 coughs; Cough Events Mean Onset Time ([7]; codeine 25 mg/kg i.p.): 337 ± 51 s; Cough Events Mean Number [8, 23]: 6 ± 1 coughs; Cough Events Mean Onset Time [8, 23]: 195 ± 33 s; Cough Events Mean Number [10, 23]: 7 ± 2 coughs; Cough Events Mean Onset Time [10, 23]: 170 ± 32 s; number of citric acid induced coughs [11, 23]: 6±2 coughs; onset time to the first cough [11, 23]: 170 ± 28 s; Cough Events Mean Number [12, 23]: 5 ± 1 coughs; Cough Events Mean Onset Time [12, 23]: 236 ± 22 s
